Experimental data: patent publication US6596474B1, “Prevention and treatment of amyloid-associated disorders” (Scios Inc., priority 1999, dated 2003)
Values belong to the compound of their own block, whether it stands above or below them.

Legend:
[1] = system: microglia; test: cAMP pathway agents as co-activators with Aβ of microglia; type: cell-based
Excerpt: Two of the four PGE2 isoforms, EP2 and EP4, are coupled to Gs and elevate cAMP levels upon activation. EP3 is coupled to Gi and inhibits cAMP production while EP1 increased Ca^++i. As a first step in distinguishing the receptor isoform mediating the PGE2 signal, the second messenger in the Aβ coactivation pathway was identified.

[2] = system: primary glia; test: Aβ:PGE2 activation of primary glia in presence of EP2 antagonist; type: cell-based; details: even at 10-fold higher concentration than the Kd; FIG. 7
[3] = biological target: EP2 (Homo sapiens, UniProt P43116); test: PGE2 stimulated cAMP accumulation functional assay; type: cell-based; details: read-out: EC50 for inhibition of PGE2 induced cAMP generation
Excerpt: (§2) An EP1/2 selective antagonist AH6809 (Woodward et al., 1995) was used to block the activity of EP2.

[4] = biological target: T1, EP1 (Homo sapiens, UniProt P34995); test: [3H]-PGE2 binding to EP1; details: read-out: Ki for inhibition of [3H]-PGE2 binding to EP1
T1 sequence (P34995 1-402): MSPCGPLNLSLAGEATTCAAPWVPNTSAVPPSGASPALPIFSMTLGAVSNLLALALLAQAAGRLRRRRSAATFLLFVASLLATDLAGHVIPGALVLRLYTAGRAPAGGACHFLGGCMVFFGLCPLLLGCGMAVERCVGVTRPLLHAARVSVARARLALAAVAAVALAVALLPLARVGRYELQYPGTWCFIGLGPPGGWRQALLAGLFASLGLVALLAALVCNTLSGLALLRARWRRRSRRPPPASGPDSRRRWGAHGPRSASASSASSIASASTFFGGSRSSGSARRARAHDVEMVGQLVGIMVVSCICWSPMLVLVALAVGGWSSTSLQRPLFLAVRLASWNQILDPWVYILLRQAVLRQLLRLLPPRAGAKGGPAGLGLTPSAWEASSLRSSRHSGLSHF
Excerpt: as §2

[5] = biological target: EP4 (Homo sapiens, UniProt P35408); test: [3H]-PGE2 binding to EP4
Excerpt: as §2

[6] = system: BV-2 microglia; test: Aβ stimulation of BV-2 cells in presence of antagonist or antisense; type: cell-based, murine
Excerpt: In addition, the EP2 antagonist AH6809 had no effect on Aβ stimulation of BV-2 cells (FIG. 7). Aβ treatment of BV-2 microglia has two striking morphological effects. First, cells clumped in a manner consistent with the well documented microglial chemotactic activity to Aβ. Second, the morphology of individual cells is altered such that they change from a spherical to an elongated, process bearing shape.
Since selective EP4 antagonists were unavailable, an antisense approach is used to probe involvement of EP4 in Aβ:PGE2 activation of microglia. The antisense oligonucleotides are first tested for their ability to inhibit EP4 expression by measuring their effect on PGE2 stimulation of cAMP accumulation, an EP2/EP4 mediated event. Once the activity of the antisense oligonucleotide is confirmed, the effect of the oligonucleotide on Aβ:PGE2 activation is tested in BV-2 microglial cells.
Next, BV-2 cells are pretreated with the antisense oligonucleotides for 48 hours and then, in the continued presence of the oligonucleotide, the pretreated cells are exposed to Aβ. […] The EP4 construct decreases IL-1β by 50%, a substantial effect for this method of inhibition (FIG. 8).

[7] = system: primary cortical mixed glial cultures; test: Aβ:PGE2 synergy in primary cortical mixed glial cultures, cytokine levels; type: cell-based, mice; details: agent alone; 100 pg/ml PGE2 or 11 hour aged Aβ; 48 hours; indomethacin pretreated
Procedure: (§1) As co-culture with astrocytes is known to promote the resting state for cultured microglia, mixed primary glial cultures are a particularly suitable system in which to examine PGE2:Aβ synergy. Briefly, cortices from P3 wild type mice were dissected in Ca^2+ and Mg^2+ free HBSS (Gibco). Meninges were carefully dissected away, and the tissue transferred to a dish containing HBSS supplemented with 0.53 mM EDTA and 0.05% trypsin. The tissue was incubated for 18 minutes at room temperature with occasional gentle agitation. Trypsin was removed and the tissue washed with HBSS twice prior to titration in growth medium consisting of high glucose DMEM supplemented with 10% fetal bovine serum (FBS), 110 mg/L sodium pyruvate, and 5 units/ml penicillin/streptomycin. The cell suspension was plated at 9 cortices in growth medium into one T75 and one T25 flask. The next day, nonadherent cells were removed. The culture was refed with growth medium at this time and once every 3 days following. When the culture appeared quite confluent, approximately one week, it was trypsinized and split into 48 well plates at 10^5 cells/well. Experiments were initiated in several days when cells again reached confluence.
The effect of Aβ in the presence and absence of exogenous PGE2 was investigated in these primary cortical mixed glial cultures. An Aβ peptide was resuspended at 4 mg/ml in 50% HFIP, incubated overnight at 37° C., dried in a Speed Vac, and resuspended in water at 4 mg/ml. The peptide was then “aged” at 37° C. for 11 or 24 hours and sonicated for 30 seconds on ice prior to use.
100 pg/ml of PGE2 is a low dose that is not expected to stimulate receptors for thromboxane or other prostenoids and is likely to be physiologically relevant. […] Treatments were made in duplicate. After 48 hours, media and lysates were harvested and assayed.
We confirmed the cellular source of the if biochemical signal by immunocytochemistry with an anti-mouse IL-1α monoclonal antibody (R&D Systems).

[8] = system: mouse microglial cell line MMGT-16; test: Aβ:PGE2 synergy in MMGT-16 cells, cytokine secretion; type: cell-based; details: agent alone
Excerpt: The protocol described above in Example 2 was then used to examine the synergy between PGE2 and Aβ in the mouse microglial cell line MMGT-16.
Synergy in MMGT-16 cells was examined by measuring secretion of both TNF-α (FIG. 5) and IL-1β (FIG. 4).

[9] = system: BV-2 murine microglial cells; test: Aβ activation of BV-2 cells (IL-1α); type: cell-based; details: exogenous PGE2 co-incubation
Procedure: BV-2 murine microglial cells display many phenotypic properties of primary microglia (Blasi et al., 1990; Bocchini et al., 1992), including responsiveness to Aβ (Murphy et al., 1998). BV-2 cells are quasi-activated under basal culture conditions and secrete significant quantities of PGE2, and Aβ treatment alone induces IL-1α in BV-2 cells. […] This was believed to result from co-activation by endogenous PGE2.
The PGE2 concentration in the 24 hour conditioned media from a BV-2 cell culture was a typically 500-800 pg/ml, well above that used for Aβ:PGE2 stimulation. […] Aβ activation of BV-2 cells is highly reproducible, having been observed in 90% of experiments with a mean stimulation of 3.2 fold (n=21; p<0.05 vs. media control).

[10] = system: primary mixed murine glial cultures; test: PGE2 in medium conditioned by primary mixed murine glial cultures; type: cell-based; details: 14 μM indomethacin during 48 hour conditioning; basal just under 200 pg/ml
Procedure: as §1
This is within the range in which would allow PGE2:Aβ synergy to be observed.

Chain of EP2 (P43116 whole entry): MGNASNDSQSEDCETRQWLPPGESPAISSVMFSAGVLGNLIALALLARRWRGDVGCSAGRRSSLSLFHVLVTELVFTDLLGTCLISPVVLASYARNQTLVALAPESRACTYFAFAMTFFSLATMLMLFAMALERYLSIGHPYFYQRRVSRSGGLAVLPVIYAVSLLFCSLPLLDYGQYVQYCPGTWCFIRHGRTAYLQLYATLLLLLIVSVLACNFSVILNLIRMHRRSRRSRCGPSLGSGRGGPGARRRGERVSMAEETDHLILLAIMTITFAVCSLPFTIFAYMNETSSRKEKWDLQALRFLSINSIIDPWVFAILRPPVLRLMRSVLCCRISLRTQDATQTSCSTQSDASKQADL
Chain of EP4 (P35408 whole entry): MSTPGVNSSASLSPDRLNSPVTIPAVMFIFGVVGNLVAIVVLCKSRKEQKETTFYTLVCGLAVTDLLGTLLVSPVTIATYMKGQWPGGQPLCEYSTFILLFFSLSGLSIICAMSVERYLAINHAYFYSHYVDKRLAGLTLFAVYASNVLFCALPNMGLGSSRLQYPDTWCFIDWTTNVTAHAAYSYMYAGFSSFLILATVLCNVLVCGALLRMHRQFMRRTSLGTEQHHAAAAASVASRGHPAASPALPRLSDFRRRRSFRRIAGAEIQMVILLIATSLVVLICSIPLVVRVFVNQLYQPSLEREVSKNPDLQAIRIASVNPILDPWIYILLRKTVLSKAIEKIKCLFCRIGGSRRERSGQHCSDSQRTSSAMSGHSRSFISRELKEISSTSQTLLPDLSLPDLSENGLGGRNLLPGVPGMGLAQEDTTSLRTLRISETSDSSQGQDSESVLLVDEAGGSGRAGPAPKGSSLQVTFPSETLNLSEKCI

SMILES: Nc1ncnc2c1nc(Br)n2[C@@H]1O[C@@H]2COP(=O)(O)O[C@H]2[C@H]1O [8-Br-cAMP]
- substitution for PGE2 as co-activator with Aβ [1]: ability to substitute for PGE2 as a coactivator with Aβ

- EC50 [3]: 1000 nM
- Ki [4]: 1000 nM
- inhibition of [3H]-PGE2 binding to EP4 [5]: lack of AH6809 inhibition
SMILES: CC(C)Oc1ccc2c(=O)c3cc(C(=O)O)ccc3oc2c1 [AH6809]
- effect on Aβ:PGE2 activation of primary glia [2]: no effect
- effect on morphological responses to Aβ (clumping, elongated process bearing shape) ([6]; BV-2 microglia): no effect on either response
- effect on Aβ stimulation of BV-2 cells ([6]; FIG. 7): no effect

SMILES: CCCCC[C@H](O)/C=C/[C@H]1[C@H](O)CC(=O)[C@@H]1C/C=C\CCCC(=O)O [PGE2, Prostaglandin E2]
- intracellular IL-1α [7]: Neither PGE2 nor 11 hour aged Aβ alone had an effect
- secreted IL-1α [7]: Neither PGE2 nor 11 hour aged Aβ alone had an effect
- secreted IL-6 [7]: Neither PGE2 nor 11 hour aged Aβ alone had an effect
- TNF-α secretion [8]: no discernable effect
- secretion of IL-1β [8]: unaffected
- enhancement of Aβ-induced IL-1α elevation [9]: not further enhanced

SMILES: COc1ccc2c(c1)c(CC(=O)O)c(C)n2C(=O)c1ccc(Cl)cc1 [indomethacin]
- PGE2 secretion [10]: about 30 pg/ml

SMILES: COc1ccc(C2CNC(=O)C2)cc1OC1CCCC1 (stereo not drawn) [rolipram]
- effect on Aβ:PGE2 stimulation of microglial cytokine production [1]: enhance
